These results are taken from paper PMC3286537 (Purinergic Signalling, 2011).

Where a chain is given by its changes, count along the chain named. Where two headings read alike, the source gives them in different places.

Test [1] has as its target T1, hA2BR (Homo sapiens, UniProt P29275).
T1 sequence (P29275 1-332): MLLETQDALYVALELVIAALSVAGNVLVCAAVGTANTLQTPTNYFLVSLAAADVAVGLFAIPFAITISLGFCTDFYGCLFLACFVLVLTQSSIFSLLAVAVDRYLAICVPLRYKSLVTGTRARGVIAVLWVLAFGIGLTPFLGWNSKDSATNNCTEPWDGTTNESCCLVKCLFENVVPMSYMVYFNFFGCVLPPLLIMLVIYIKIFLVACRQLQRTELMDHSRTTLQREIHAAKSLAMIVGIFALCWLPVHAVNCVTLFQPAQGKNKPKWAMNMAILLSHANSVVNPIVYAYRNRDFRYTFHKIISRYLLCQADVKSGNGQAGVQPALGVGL
Conditions: CHO cell membranes expressing the hA2BR; cited from earlier work.

Test [2] has as its target T1, hA2BR. As to the kind of experiment: Saturation binding on whole yeast cells expressing the hA2BR. The following applies: read-out: K D, yeast.
Test [3] has as its target T2, human adenosine A2BR mutant Y202S^5.58 (Homo sapiens, UniProt P29275, Y202S).
T2 sequence (P29275 1-332 Y202S): T1 sequence (P29275 1-332) with Y202S
As to the kind of experiment: Solid yeast growth assay, mutant Y202S. It counts as cell-based. The following applies: inverse agonist response.

Test [4] concerns other 11 mutant adenosine A2BRs. As to the kind of experiment: Solid yeast growth assay, the other 11 mutant receptors. The following applies: 10 μM ZM241385. It counts as cell-based, human.
The subject of test [5] is A2BR mutant C167^EL2 to serine. The following applies: C167^EL2 mutated to serine; cited from earlier work.
Test [6] deals with T3, human adenosine A2BR mutant C167S^EL2 (Homo sapiens, UniProt P29275, C167S).
T3 sequence (P29275 1-332 C167S): T1 sequence (P29275 1-332) with C167S
As to the kind of experiment: Liquid yeast growth assay, mutant C167S.

The target of test [7] is T2, human adenosine A2BR mutant Y202S^5.58. Nature of the test: Liquid yeast growth assay, mutant Y202S.

In the case of `CCCn1c(=O)[nH]c2nc(-c3ccc(S(=O)(=O)N4CCN(c5ccc(Cl)cc5)CC4)cc3)[nH]c2c1=O` [[^3H]PSB-603], the Kd in test [1] is 0.4 ± 0.19 nM; in test [2], 0.81 ± 0.02 nM.
Take `Nc1nc(NCCc2ccc(O)cc2)nc2nc(-c3ccco3)nn12` [ZM241385, 4-{2-[7-amino-2-(2-furyl)[1,2,4]triazolo-[2,3-a][1,3,5]triazin-5-yl-amino]ethyl}phenol]: the results for the “effect on constitutive activity” value in test [3] and in test [4] were “could be reduced to wild-type levels” and “could be fully suppressed”, respectively.
In the case of `N#Cc1c(N)nc(SCC(N)=O)c(C#N)c1-c1ccc(OCC2CC2)cc1` [BAY 60-6583, 2-[6-amino-3,5-dicyano-4-[4-(cyclopropylmethoxy)phenyl]pyridin-2-ylsulfanyl]acetamide], in test [5], the “fold increase in potency” value is reported as 2.5 fold. Also, the “fold increase in potency compared with wild type” value in test [6] is 2 fold; in test [7], 10 fold.
